The source of these data is patent US20060040957A1, “BICYCLIC PYRIMIDINE MATRIX METALLOPROTEINASE INHIBITORS” (priority 2001, published 2006).

For orientation: IC50 means the concentration that gives 50% inhibition.

Counter-ions that a name gives are not always drawn. Like-named read-outs stand apart in the source and are kept apart here.

What all share (assay type): biochemical
Experiment [1] addresses MMP-13CD (catalytic domain of collagenase 3) (Homo sapiens, UniProt P45452). In words: Thiopeptolide substrate hydrolysis assay, MMP-13CD. The following applies: thiopeptolide substrate, HEPES pH 7.0, 22° C. The source says: (§1) Thiopeptolide substrates show virtually no decomposition or hydrolysis at or below neutral pH in the absence of a matrix metalloproteinase enzyme.

For experiment [2], the target named is MMP-14CD (catalytic domain of MMP-14) (Homo sapiens, UniProt P50281). In words: Thiopeptolide substrate hydrolysis assay, MMP-14CD. Particulars: HEPES pH 7.0, 22° C., read-out: IC50 (μM) Versus Certain MMPs: MMP-14 CD.
Description: (§2) The invention compounds of Formula I have been evaluated in standard assays for their ability to inhibit the catalytic activity of various MMP enzymes.
as §1
(§3) Several representative compounds have been evaluated for their ability to inhibit various matrix metalloproteinase enzymes.

In experiment [3] the target is MMP-9FL (full length Gelatinase B) (Homo sapiens, UniProt P14780). In words: Thiopeptolide substrate hydrolysis assay, MMP-9FL. The following applies: HEPES pH 7.0, 22° C., read-out: IC50 (μM) Versus Certain MMPs: MMP-09 FL.
Sequence of MMP-9FL (full length Gelatinase B) (P14780 94-707, species assumed): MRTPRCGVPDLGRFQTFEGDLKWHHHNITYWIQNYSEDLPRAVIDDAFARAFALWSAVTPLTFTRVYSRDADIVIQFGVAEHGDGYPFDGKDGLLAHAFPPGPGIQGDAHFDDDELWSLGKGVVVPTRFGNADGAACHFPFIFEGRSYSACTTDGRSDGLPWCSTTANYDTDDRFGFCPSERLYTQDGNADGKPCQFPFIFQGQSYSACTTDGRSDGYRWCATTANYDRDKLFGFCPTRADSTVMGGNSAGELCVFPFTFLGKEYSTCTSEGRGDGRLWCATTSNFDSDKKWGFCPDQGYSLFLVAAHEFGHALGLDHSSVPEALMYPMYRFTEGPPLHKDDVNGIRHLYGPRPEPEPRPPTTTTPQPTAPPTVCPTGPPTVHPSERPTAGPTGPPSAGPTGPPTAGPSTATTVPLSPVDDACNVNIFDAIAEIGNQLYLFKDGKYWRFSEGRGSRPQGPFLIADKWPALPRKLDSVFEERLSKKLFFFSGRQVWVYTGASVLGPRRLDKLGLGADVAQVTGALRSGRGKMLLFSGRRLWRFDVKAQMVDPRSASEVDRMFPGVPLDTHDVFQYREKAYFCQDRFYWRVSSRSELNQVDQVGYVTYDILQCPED
Description: as §2, §1, §3

The target in experiment [4] is T1, MMP-2FL (full length Gelatinase A) (Homo sapiens, UniProt P08253).
T1 sequence (P08253 110-660): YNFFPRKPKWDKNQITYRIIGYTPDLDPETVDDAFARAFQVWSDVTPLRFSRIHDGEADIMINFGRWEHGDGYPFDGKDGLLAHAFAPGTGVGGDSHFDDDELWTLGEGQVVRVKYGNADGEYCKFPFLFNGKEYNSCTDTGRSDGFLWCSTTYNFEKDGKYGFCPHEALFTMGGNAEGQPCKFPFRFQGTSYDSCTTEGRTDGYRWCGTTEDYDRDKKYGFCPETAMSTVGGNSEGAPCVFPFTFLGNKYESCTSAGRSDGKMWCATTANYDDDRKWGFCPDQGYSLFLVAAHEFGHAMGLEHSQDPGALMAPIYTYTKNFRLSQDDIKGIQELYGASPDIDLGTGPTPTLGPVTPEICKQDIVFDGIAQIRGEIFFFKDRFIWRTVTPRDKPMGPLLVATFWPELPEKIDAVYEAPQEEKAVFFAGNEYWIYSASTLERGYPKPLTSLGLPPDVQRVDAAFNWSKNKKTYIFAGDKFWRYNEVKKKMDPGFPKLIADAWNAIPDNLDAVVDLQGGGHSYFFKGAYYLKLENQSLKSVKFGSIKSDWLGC
In words: Thiopeptolide substrate hydrolysis assay, MMP-2FL. Particulars: HEPES pH 7.0, 22° C., read-out: IC50 (μM) Versus Certain MMPs: MMP-02 FL.
Description: as §2, §1, §3

Experiment [5] deals with T2, MMP-7FL (full length matrilysin) (Homo sapiens, UniProt P09237).
T2 sequence (P09237 95-267): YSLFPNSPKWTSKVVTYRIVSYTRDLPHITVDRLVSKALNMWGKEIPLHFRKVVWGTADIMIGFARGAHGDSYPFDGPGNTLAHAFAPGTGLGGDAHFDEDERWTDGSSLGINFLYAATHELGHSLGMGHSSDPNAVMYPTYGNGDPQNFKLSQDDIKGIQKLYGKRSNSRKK
In words: Thiopeptolide substrate hydrolysis assay, MMP-7FL. Particulars: HEPES pH 7.0, 22° C., read-out: IC50 (μM) Versus Certain MMPs: MMP-07 FL.
Description: as §2, §1, §3

[6] abbreviates: read-out: IC50 (μM) Versus Certain MMPs: MMP-13 CD.

Take `C=C(C)Cn1c(=O)c(C)c2sc(C(=O)NCc3ccc(F)cc3)cn2c1=O` [Example 93, 8-Methyl-6-(2-methyl-allyl)-5,7-dioxo-6,7-dihydro-5H-thiazolo[3,2-c]pyrimidine-2-carboxylic acid 4-fluoro-benzylamide]: in experiment [1] (IC50 (μM) Versus Certain MMPs: MMP-13 CD), 1.55 µM corresponded to half-maximal inhibition (IC50).

For the molecule `Cc1nc(CNC(=O)c2cn3c(=O)n(Cc4ccccc4)c(=O)c(C)c3s2)cs1` [Example 52, 6-Benzyl-8-methyl-5,7-dioxo-6,7-dihydro-5H-thiazolo[3,2-c]pyrimidine-2-carboxylic acid(2-methyl-thiazol-4-ylmethyl)-amide hydrochloride], the IC50 in experiment [1] (setting [6]) was over 100 µM.

For `Cc1c(=O)n(Cc2ccccc2)c(=O)n2cc(C(O)C=Cc3ccccc3)sc12` (centres unmarked) [Example 29, 6-Benzyl-2-(1-hydroxy-3-phenyl-allyl)-8-methyl-thiazolo[3,2-c]pyrimidine-5,7-dione], in experiment [1] (setting [6]), the IC50 came out at 25 µM.

`O=C(OCc1ccccc1)C1CSc2cc(=O)n(Cc3ccccc3)c(=O)n21` (centres unmarked) [Example 20, 6-Benzyl-5,7-dioxo-2,3,6,7-tetrahydro-5H-thiazolo[3,2-c]pyrimidine-3-carboxylic acid benzyl ester]: in experiment [1], the “IC50 (μM) Versus Certain MMPs: MMP-13 CD” value is “none”.

Turning to `O=c1cc2sccn2c(=O)n1Cc1ccncc1` [6-(4-Pyridylmethyl)-thiazolo[3,2-c]pyrimidine-5,7,dione], in experiment [1] (setting [6]), the IC50 was over 100 µM.

With `Cc1c(=O)n(Cc2ccccc2)c(=O)n2cc(C(=O)NCc3cccnc3)sc12` [Example 44, 6-benzyl-8-methyl-5,7-dioxo-6,7-dihydro-5H-thiazolo[3,2-c]pyrimidine-2-carboxylic acid(pyridin-3-ylmethyl)-amide], the half-maximal inhibitory concentration (IC50) was over 100 µM in experiment [2], over 30 µM in experiment [3], over 100 µM in experiment [4] and over 100 µM in experiment [5].

For `Cc1nc(Cn2c(=O)c(C)c3sc(C(=O)NCc4ccc(F)cc4)cn3c2=O)cs1` [Example 64, 8-Methyl-6-(2-methyl-thiazol-4-ylmethyl)-5,7-dioxo-6,7-dihydro-5H-thiazolo[3,2-c]pyrimidine-2-carboxylic acid 4-fluoro-benzylamide], the IC50 in experiment [2] is over 100 µM; in experiment [3], over 30 µM; in experiment [4], over 100 µM; in experiment [5], over 100 µM.

With `Cc1c(=O)n(Cc2ccccc2)c(=O)n2cc(C(=O)NCc3ccc(Cl)cc3)sc12` [Example 50, 6-Benzyl-8-methyl-5,7-dioxo-6,7-dihydro-5H-thiazolo[3,2-c]pyrimidine-2-carboxylic acid 4-chloro-benzylamide], the IC50 in experiment [2] was over 100 µM; in experiment [3], over 100 µM; in experiment [4], over 30 µM; in experiment [5], 31 µM.

For the molecule `Cc1cccc(CNC(=O)c2cn3c(=O)n(Cc4ccccc4)c(=O)c(C)c3s2)c1` [Example 28, 6-Benzyl-8-methyl-5,7-dioxo-6,7-dihydro-5H-thiazolo[3,2-c]pyrimidine-2-carboxylic acid 3-methyl-benzylamide], the IC50 in experiment [2] is over 100 µM; in experiment [3], over 30 µM; in experiment [4], over 30 µM; in experiment [5] it was 71 µM.

Take `O=C(NCc1ccncc1)c1cn2c(=O)n(Cc3ccccc3)c(=O)cc2s1` [Example 9, 6-Benzyl-5,7-dioxo-6,7-dihydro-5H-thiazolo[3,2-c]pyrimidine-2-carboxylic acid(pyridin-4-ylmethyl)-amide hydrochloride]: the 50% inhibitory concentration (IC50) in experiment [2], in experiment [3], in experiment [4] and in experiment [5] was over 100 µM in each case.

Consider `Cc1c(=O)n(Cc2ccc(Cl)cc2)c(=O)n2cc(C(=O)NCc3ccncc3)sc12` [Example 72, 6-(4-Chloro-benzyl)-8-methyl-5,7-dioxo-6,7-dihydro-5H-thiazolo[3,2-c]pyrimidine-2-carboxylic acid(pyridin-4-ylmethyl)-amide], for which the half-maximal inhibitory concentration (IC50) in experiment [2], in experiment [3], in experiment [4] and in experiment [5] was over 30 µM throughout.

Take `O=C(OCc1ccccc1)C1C[S+]([O-])c2cc(=O)n(Cc3ccccc3)c(=O)n21` (centres unmarked) [Example 23, 6-Benzyl-1,5,7-trioxo-1,2,3,5,6,7-hexahydro-114-thiazolo[3,2-c]pyrimidine-3-carboxylic acid benzyl ester]: the half-inhibitory concentration (IC50) in experiment [2], in experiment [3], in experiment [4] and in experiment [5] was over 100 µM throughout.

`Cc1c(=O)n(Cc2cccc(C#N)c2)c(=O)n2cc(C(=O)NCc3ccncc3)sc12` [Example 82, 6-(3-Cyano-benzyl)-8-methyl-5,7-dioxo-6,7-dihydro-5H-thiazolo[3,2-c]pyrimidine-2-carboxylic acid(pyridin-4-ylmethyl)-amide hydrochloride]: the IC50 in experiment [2], in experiment [3], in experiment [4] and in experiment [5] was over 30 µM in each case.

For the molecule `Cc1c(=O)n(Cc2ccc(F)cc2)c(=O)n2cc(C(=O)NCc3ccncc3)sc12` [Example 70, 6-(4-Fluoro-benzyl)-8-methyl-5,7-dioxo-6,7-dihydro-5H-thiazolo[3,2-c]pyrimidine-2-carboxylic acid(pyridin-4-ylmethyl)-amide hydrochloride], the IC50 in experiment [2], in experiment [3], in experiment [4] and in experiment [5] was over 30 µM each time.

`Cc1c(=O)n(Cc2ccccc2)c(=O)n2cc(C(=O)NCc3ccncc3)sc12` [Example 36, 6-Benzyl-8-methyl-5,7-dioxo-6,7-dihydro-5H-thiazolo[3,2-c]pyrimidine-2-carboxylic acid(pyridin-4-ylmethyl)-amide hydrochloride]: the 50% inhibitory concentration (IC50) in experiment [2] was over 100 µM; in experiment [3] it was over 30 µM; in experiment [4], over 100 µM; in experiment [5], over 100 µM.

Take `Cc1c(=O)n(Cc2ccc(C(=O)N3CCOCC3)cc2)c(=O)n2cc(C(=O)NCc3ccncc3)sc12` [Example 73, 8-Methyl-6-[4-(morpholine-4-carbonyl)-benzyl]-5,7-dioxo-6,7-dihydro-5H-thiazolo[3,2-c]pyrimidine-2-carboxylic acid(pyridin-4-ylmethyl)-amide hydrochloride]: the IC50 in experiment [2] was over 30 µM; in experiment [3], over 100 µM; in experiment [4] it was over 100 µM; in experiment [5] it was over 100 µM.

With `COc1cccc(CNC(=O)c2cn3c(=O)n(Cc4ccccc4)c(=O)c(C)c3s2)c1` [Example 109, 6-Benzyl-8-methyl-5,7-dioxo-6,7-dihydro-5H-thiazolo[3,2-c]pyrimidine-2-carboxylic acid 3-methoxy-benzylamide], the half-inhibitory concentration (IC50) in experiment [2], in experiment [3], in experiment [4] and in experiment [5] was over 30 µM throughout.

Consider `Cc1c(=O)n(Cc2ccccc2)c(=O)n2cc(C(=O)NCc3ccc(C(F)(F)F)cc3)sc12` [Example 49, 6-Benzyl-8-methyl-5,7-dioxo-6,7-dihydro-5H-thiazolo[3,2-c]pyrimidine-2-carboxylic acid 4-trifluoromethyl-benzylamide], for which the concentration for half-maximal inhibition (IC50) in experiment [2] is over 100 µM; in experiment [3], over 100 µM; in experiment [4], over 30 µM; in experiment [5] it was over 100 µM.

For `Cc1c(=O)n(Cc2ccccc2)c(=O)n2cc(C(=O)NCc3ccc(F)c(F)c3)sc12` [Example 43, 6-Benzyl-8-methyl-5,7-dioxo-6,7-dihydro-5H-thiazolo[3,2-c]pyrimidine-2-carboxylic acid 3,4-difluoro-benzylamide], the IC50 is over 100 µM in experiment [2], over 30 µM in experiment [3], over 30 µM in experiment [4] and over 30 µM in experiment [5].

On to `Cc1c(=O)n(Cc2ccc(C(=O)OCCN(C)C)cc2)c(=O)n2cc(C(=O)NCc3ccc(F)cc3)sc12` [Example 60, 4-[2-(4-Fluoro-benzylcarbamoyl)-8-methyl-5,7-dioxo-7H-thiazolo[3,2-c]pyrimidin-6-ylmethyl]-benzoic acid 2-dimethylamino-ethyl ester], for which the IC50 in experiment [2], in experiment [3], in experiment [4] and in experiment [5] was over 100 µM in each case.
